Consider twelve molecules from patent US5933819A, “Prediction of relative binding motifs of biologically active peptides and peptide mimetics” (The Scripps Research Institute, priority 1997, dated 1999).

As a reminder, the Kd is the equilibrium constant for the complex coming apart.

Where two headings read alike, the source gives them in different places. Where no end group is shown, it is not given here.

Assay [1] addresses T1, K^b on the surface of K^b transfected drosophila cells (Mus musculus, UniProt P01901).
T1 construct: expressed in transfected cells; host or cells: Drosophila cells transfected with K^b
T1 sequence (P01901 22-369): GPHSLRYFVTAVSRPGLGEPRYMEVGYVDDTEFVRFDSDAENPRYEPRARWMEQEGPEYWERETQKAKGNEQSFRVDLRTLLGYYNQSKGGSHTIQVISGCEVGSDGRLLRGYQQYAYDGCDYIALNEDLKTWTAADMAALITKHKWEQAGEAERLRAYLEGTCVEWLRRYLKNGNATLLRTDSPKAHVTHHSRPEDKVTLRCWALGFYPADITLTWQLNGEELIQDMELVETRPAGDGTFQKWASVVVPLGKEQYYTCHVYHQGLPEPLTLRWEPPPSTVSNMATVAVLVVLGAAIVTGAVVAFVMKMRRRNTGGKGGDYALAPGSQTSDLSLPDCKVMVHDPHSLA
T1 sequence (P01887 21-119 partner): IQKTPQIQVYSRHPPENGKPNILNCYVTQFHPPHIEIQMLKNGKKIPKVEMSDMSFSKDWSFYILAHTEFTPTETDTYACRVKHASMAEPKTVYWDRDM
Description: FACS analysis of stabilization of cell surface K^b by peptides. The format is cell-based. The protocol: FACS Analysis. Values from fluorescence activated cell sorter (FACS) analysis showing the relative amounts of K^b on the surface of K^b transfected drosophila cells following an 18-hour incubation with the indicated peptides. […] Median fluorescence values from separate experiments were normalized by subtracting the median fluorescence obtained in the absence of added peptides from each peptide sample and then expressing those values as the percent of the fluorescence obtained with […] (which was examined in all experiments). Peptide binding was also analyzed by the ability to stabilize cell surface K^b molecules. Empty class I molecules are thermolabile, but they can be stabilized by binding appropriate peptides. Peptides were bound to K^b molecules expressed on the surfaces of K^b transfected Drosophila cells. Their relative binding strengths are indicated by their median fluorescence.

Assay [2] concerns the target T2, K^b (Mus musculus, UniProt P01901).
T2 construct: Soluble K^b was purified from transfected Drosophila cells; made in house; host or cells: transfected Drosophila cells
T2 sequence (P01901 22-305 limits assumed): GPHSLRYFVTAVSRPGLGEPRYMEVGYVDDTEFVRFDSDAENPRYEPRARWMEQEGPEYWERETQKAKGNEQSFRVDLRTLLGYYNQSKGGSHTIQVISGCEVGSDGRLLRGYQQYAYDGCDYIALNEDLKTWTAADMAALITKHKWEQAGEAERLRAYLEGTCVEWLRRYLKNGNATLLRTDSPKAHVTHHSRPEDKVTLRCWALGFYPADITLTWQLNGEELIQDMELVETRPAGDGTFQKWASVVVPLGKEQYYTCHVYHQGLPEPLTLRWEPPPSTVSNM
T2 sequence (P01887 21-119 partner): T1 sequence (P01887 21-119 partner)
The following applies: known immunodominant epitope, characterized previously; read-out: KD (dissociation constant); cited from earlier work.

For assay [3], the target named is T2, K^b. Put plainly: biochemical. Type of assay: binding.
[4] abbreviates: 18-hour incubation with peptide, 23° C., antibody Y3, median fluorescence normalized to SIINFEKL
The mark [5] stands for this setting: read-out: KD (dissociation constant).

In the case of `CC[C@H](C)[C@H](NC(=O)[C@@H](NC(=O)[C@@H](N)CO)[C@@H](C)CC)C(=O)N[C@@H](CC(N)=O)C(=O)N[C@@H](Cc1ccccc1)C(=O)N[C@@H](CCC(=O)O)C(=O)N[C@@H](CCCCN)C(=O)N[C@@H](CC(C)C)C(=O)O` [Peptide 1, reference compound], in assay [1] (setting [4]), the “FACS Analysis % SIINFEKL (relative amount of K^b on cell surface)” value turned out to be 100 % SIINFEKL. In addition, in assay [2], the Kd is 3 nM.

As for AEERYPIL [Peptide 3], the “FACS Analysis % SIINFEKL (relative amount of K^b on cell surface)” value in assay [1] (setting [4]) was determined as 42 % SIINFEKL. In assay [3], this molecule registered a Kd of 67000 nM.

For ASEKMKIL [Peptide 9], the “FACS Analysis % SIINFEKL (relative amount of K^b on cell surface)” value in assay [1] (setting [4]) was determined as 4 % SIINFEKL. This molecule also returned a Kd in assay [3] of 550000 nM.

Consider DHPFLFCI [Peptide 10], for which, in assay [1] (setting [4]), the “FACS Analysis % SIINFEKL (relative amount of K^b on cell surface)” value is on record as 38 % SIINFEKL. In assay [3], the Kd was 47000 nM.

For DVYSFSLA [Peptide 7], the “FACS Analysis % SIINFEKL (relative amount of K^b on cell surface)” value in assay [1] (setting [4]) stood at 65 % SIINFEKL. The molecule further gave a Kd in assay [3] of 70 nM.

For ENIFYCPI [Peptide 11], the “FACS Analysis % SIINFEKL (relative amount of K^b on cell surface)” value in assay [1] was found to be 77. Further, the Kd in assay [3] (setting [5]) amounted to 94 nM.

On to GTMSMLVL [Peptide 8], for which the “FACS Analysis % SIINFEKL (relative amount of K^b on cell surface)” value in assay [1] (setting [4]) came to 0 % SIINFEKL. In addition, the Kd in assay [3] is 1200 nM.

Regarding KVVRFDKL [Peptide 5], the “FACS Analysis % SIINFEKL (relative amount of K^b on cell surface)” value in assay [1] (setting [4]) came out at 94 % SIINFEKL. Further, in assay [3], the affinity, expressed as Kd, was 26 nM.

Turning to NAIVFKGL [Peptide 4], the “FACS Analysis % SIINFEKL (relative amount of K^b on cell surface)” value in assay [1] (setting [4]) amounted to 76 % SIINFEKL. The Kd in assay [3] worked out at 13 nM.

In the case of RGDKLPGFG [Peptide 6], the “FACS Analysis % SIINFEKL (relative amount of K^b on cell surface)” value in assay [1] (setting [4]) stood at 30 % SIINFEKL. In assay [3], this molecule showed a Kd of 550000 nM.

With RGYVYQGL [VSV8, reference compound], the Kd in assay [3] (setting [5]) amounted to 4.1 nM.

Turning to SALAMVYL [Peptide 2], the “FACS Analysis % SIINFEKL (relative amount of K^b on cell surface)” value in assay [1] (setting [4]) is recorded as 100 % SIINFEKL. In assay [3], the Kd came out at 7.1 nM.
